From US20210282399A1, “FUNGICIDAL COMPOSITION” (priority 2018, published 2021)
Values joined by “and” are separate entries in the source; they are usually repeats but may differ in a detail not shown here. Equal values may be shown once.

Columns and labels:
Phakopsora pachyrhizi [1] = experiment: Field fungicide tests for Asian soybean rust on soybean, Brazil; assay type: in vivo; settings: soybean field plots, three foliar applications; fenpropidin 75-300 g a.i./ha; FIGS. 1 and 2
Procedure: The experiments for fungicide tests for Asian soybean rust (Phakopsora pachyrhizi) were carried out at Experimental Stations in different regions of Brazil. Each plot consisted of at least 15.0 m^2 (3.0 m×5.0 m). The experimental design was a randomized block design with four replicates, using soybean varieties adapted to each region. Three applications of foliar treatments were carried out at 10 to 15 day intervals, depending on the soybean rust pressure at each site. The applications were made with backpack sprayer pressurized with CO^2 set to apply 150 L. ha-1 of spray volume and 0.460 L/min per nozzle. […] The applications of the treatments were performed when the soybean was in stages 60 (First flowers opened (sporadically in population), 72 (About 20% of pods have reached final length (15-20 mm)) and 79 (Approx. pods have reached final length (15-20 mm), seeds filling the cavity of the majority of pods) of the BBCH international scale, respectively. The results were evaluated prior to the application of the treatments, and at 7, 14 and 21, 28 and 35 days after the first application through the visual evaluation of the percentage of disease severity per plot. The harvest was evaluated at a minimum of 5.0 m^2 per plot, and the data were transformed into kg·ha-1.

Phakopsora pachyrhizi [2] = experiment: Flow cytometric assay of fungicide efficacy on Phakopsora pachyrhizi urediniospores (healthy vs dead spores, metabolic activity); Wadley and Colby evaluation; assay type: cell-based; settings: for EC50 (Mean) / EC50: based on perturbation of the metabolic activity
Description: in which E represents the expected effect, e.g. percentage of pest control, for the combination of the three active ingredient at defined doses (for example equal to x, y and z respectively), X is the effect, e.g. percentage of pest control, observed for compound (I) at a defined dose (equal to x), Y is the effect, e.g. percentage of pest control, observed for compound (II) at a defined dose (equal to y), Z is the effect, e.g. percentage of pest control, observed for compound (III) at a defined dose (equal to z). When the effect, e.g. percentage of pest control, observed for the combination is greater than the expected effect, there is a synergistic effect. The ratio of observed action (Eobs) and expected action (Eexp), i.e. Eobs/Eexp expresses the factor of interaction level (R) which may be interpreted in accordance with Table 1a below.
In the Wadley method, synergistic activity is determined from dose response curves. With this method, the efficacy of the active ingredient (“a.i.”) is determined by comparing the degree of fungal attack on treated plants with that on untreated, similarly inoculated and incubated check plants. Each a.i. is generally tested at multiple. (e.g., 6) concentrations, and dose response curves are generated. The dose response curves are used to establish the EC50 (i.e., the effective concentration of a.i. providing 50% disease control) of the individual compounds as well as of the combinations (EC50Observed). The experimentally found values of the mixture at a given weight ratio are compared with the values that would have been found were only a complementary efficacy of the components was present as follows:
ECtheo=(a+b)/[(a/ECA)+(b/ECB)]
ECtheo=(a+b+c)/[(a/ECA)+(b/ECB+(c/ECC)]
The ratio EC50 (A+B)Theo/EC50(A+B)observed expresses the factor of interaction level (R) which may be interpreted in accordance with Table 1b below.
Soybean rust, caused by Phakopsora pachyrhizi, is one of the most important foliar diseases of soybean worldwide. Seed of soybean were sown in pots in a loam-vermiculite soil mix and placed inside a growth chamber maintained at 18° C./26° C. night/day and 60 to 70% RH with 16 h of light for 3 weeks.
First leaves were harvested and placed in Petri dishes on 1% water agar. A spore suspension (1×10^5 spores/ml of water) were prepared from infected leaf samples and was sprayed on leaf pieces using an atomizer attached to an air compressor. Petri dishes containing leaf pieces were incubated inside a growth chamber maintained at 18° C./26° C. night/day and 60 to 70% RH with 16 h of light during 2-3 weeks. Urediniospores (1×10^5 spores/ml of water) were harvested from infected leaf samples and equal volumes of spore suspension and fungicide diluted in water were mixed in 96 well plate. Spores are stained by two fluorescent dyes, one which stained dead spores and a one for which intensity of staining is directly correlated to metabolic activity.
Flow cytometric analyses were performed on a CyFlow Cube 8 equipped with an autoloading station (Sysmex Partec GmbH, Gorlittz, Germany). The fluorescences were collected for 2000 to 3000 spores per well and were used to discriminate: (i) healthy spores and (ii) dead spores. The fungicide efficacies were then calculated from the percentage of healthy spores in control condition and in treated condition.
The EC50 is based the perturbation of the metabolic activity.

In the case of `CC(Cc1ccc(C(C)(C)C)cc1)CN1CCCCC1` (racemic) [Technical Fenpropidin, (±)-1-[3-[4-(1,1-dimethylethyl)phenyl]-2-methylpropyl]piperidine], the “effectiveness against Phakopsora pachyrhizi” value (Phakopsora pachyrhizi [1]) was “effective”, the Efficacy % (Phakopsora pachyrhizi [2]; Fenpropidin dose 0.002304 ppm) was 10.17% and the Efficacy % (Phakopsora pachyrhizi [2]; Fenpropidin dose 0.01152 ppm) was 18.55%. The “EC50 (Mean)” value (Phakopsora pachyrhizi [2]; mean of Exp 1-3) was greater than 7.2 ppm, the EC50 (Phakopsora pachyrhizi [2]; single experiments Exp 1-3) was greater than 7.2 ppm and the “% of efficiency, Mean” value (Phakopsora pachyrhizi [2]; dose 0.0004608 ppm, mean of Exp 1-3) was 15.65%. For the same compound, the “% of efficiency, Mean” value (Phakopsora pachyrhizi [2]; dose 0.002304 ppm, mean of Exp 1-3) was 10.17%, the “% of efficiency, Mean” value (Phakopsora pachyrhizi [2]; dose 0.01152 ppm, mean of Exp 1-3) was 18.55% and the “% of efficiency, Mean” value (Phakopsora pachyrhizi [2]; dose 0.0576 ppm, mean of Exp 1-3) was 12.90%. The “% of efficiency” value (Phakopsora pachyrhizi [2]; dose 0.0576 ppm, single experiments Exp 1-3) was 10.9% and 12.4% and 15.5%, the “% of efficiency, Mean” value (Phakopsora pachyrhizi [2]; dose 0.288 ppm, mean of Exp 1-3) was 13.31% and the “% of efficiency” value (Phakopsora pachyrhizi [2]; dose 0.288 ppm, single experiments Exp 1-3) was 15.4% and 9.9% and 14.6%. The “% of efficiency, Mean” value (Phakopsora pachyrhizi [2]; dose 1.44 ppm, mean of Exp 1-3) was 16.42%, the “% of efficiency, Mean” value (Phakopsora pachyrhizi [2]; dose 7.2 ppm, mean of Exp 1-3) was 16.74% and the “EC50 (in 2018)” value (Phakopsora pachyrhizi [2]; value in brackets, 'in 2018') was “(88.916 ppm in 2018)”.

In the case of `OC(Cc1ccccc1Cl)(Cn1cncn1)C1(Cl)CC1` (stereo not shown) [Desthio-prothiconazole, Desthio-prothioconazole], the Efficacy % (Phakopsora pachyrhizi [2]; Desthio-prothioconazole dose 0.004544 ppm) was 38.49% and the Efficacy % (Phakopsora pachyrhizi [2]; Desthio-prothioconazole dose 0.02272 ppm) was 49.44%.

With `Cn1cc(C(=O)Nc2ccccc2-c2cc(F)c(F)c(F)c2)c(C(F)F)n1` [Technical Fluxapyroxad, Fluxapyroxad] the Efficacy % (Phakopsora pachyrhizi [2]; Fluxapyroxad dose 0.000576 ppm) was 15.24%, the Efficacy % (Phakopsora pachyrhizi [2]; Fluxapyroxad dose 0.00288 ppm) was 24.72% and the “EC50 (Mean)” value (Phakopsora pachyrhizi [2]; mean of Exp 1-3) was <>0.202 ppm. The EC50 (Phakopsora pachyrhizi [2]; single experiments Exp 1-3) was <>0.190 ppm and <>0.214 ppm and <>0.202 ppm, the “% of efficiency, Mean” value (Phakopsora pachyrhizi [2]; dose 0.0001152 ppm, mean of Exp 1-3) was 19.26% and the “% of efficiency, Mean” value (Phakopsora pachyrhizi [2]; dose 0.000576 ppm, mean of Exp 1-3) was 15.24%. For the same compound, the “% of efficiency, Mean” value (Phakopsora pachyrhizi [2]; dose 0.00288 ppm, mean of Exp 1-3) was 24.72%, the “% of efficiency” value (Phakopsora pachyrhizi [2]; dose 0.00288 ppm, single experiments Exp 1-3) was 18.6% and 37.0% and the “% of efficiency, Mean” value (Phakopsora pachyrhizi [2]; dose 0.0144 ppm, mean of Exp 1-3) was 18.40%. For the same compound, the “% of efficiency, Mean” value (Phakopsora pachyrhizi [2]; dose 0.072 ppm, mean of Exp 1-3) was 29.12%, the “% of efficiency” value (Phakopsora pachyrhizi [2]; dose 0.072 ppm, single experiments Exp 1-3) was 28.8% and 28.6% and 29.9% and the “% of efficiency, Mean” value (Phakopsora pachyrhizi [2]; dose 0.36 ppm, mean of Exp 1-3) was 59.74%. The “% of efficiency” value (Phakopsora pachyrhizi [2]; dose 0.36 ppm, single experiments Exp 1-3) was 61.7% and 52.3% and 65.2%, the “% of efficiency, Mean” value (Phakopsora pachyrhizi [2]; dose 1.8 ppm, mean of Exp 1-3) was 80.82% and the “% of efficiency” value (Phakopsora pachyrhizi [2]; dose 1.8 ppm, single experiments Exp 1-3) was 88.5% and 83.4% and 70.6%.

Mancozeb [Formulated Mancozeb] was tested, and the Efficacy % (Phakopsora pachyrhizi [2]; Mancozeb dose 0.0128 ppm) was 33.27%, the Efficacy % (Phakopsora pachyrhizi [2]; Mancozeb dose 0.064 ppm) was 50.68% and the “EC50 (Mean)” value (Phakopsora pachyrhizi [2]; mean of Exp 1-3) was <>0.042 ppm. The EC50 (Phakopsora pachyrhizi [2]; single experiments Exp 1-3) was <>0.037 ppm and <>0.058 ppm and <>0.032 ppm, the “% of efficiency, Mean” value (Phakopsora pachyrhizi [2]; dose 0.00256 ppm, mean of experiments) was 11.22% and the “% of efficiency, Mean” value (Phakopsora pachyrhizi [2]; dose 0.0128 ppm, mean of experiments) was 33.27%. For the same compound, the “% of efficiency” value (Phakopsora pachyrhizi [2]; dose 0.0128 ppm, single experiments) was 39.9% and 26.2% and 33.7%, the “% of efficiency, Mean” value (Phakopsora pachyrhizi [2]; dose 0.064 ppm, mean of experiments) was 50.88% and the “% of efficiency” value (Phakopsora pachyrhizi [2]; dose 0.064 ppm, single experiments) was 59.2% and 43.2% and 49.7%. The “% of efficiency, Mean” value (Phakopsora pachyrhizi [2]; dose 0.32 ppm, mean of experiments) was 88.10%, the “% of efficiency” value (Phakopsora pachyrhizi [2]; dose 0.32 ppm, single experiments) was 80.8% and 94.2% and 89.3% and the “% of efficiency, Mean” value (Phakopsora pachyrhizi [2]; dose 1.6 ppm, mean of experiments) was 95.20%. For the same compound, the “% of efficiency” value (Phakopsora pachyrhizi [2]; dose 1.6 ppm, single experiments) was 93.6% and 98.7% and 93.2%, the “% of efficiency, Mean” value (Phakopsora pachyrhizi [2]; dose 8 ppm, mean of experiments) was 94.99% and the “% of efficiency” value (Phakopsora pachyrhizi [2]; dose 8 ppm, single experiments) was 89.4% and 98.9% and 96.6%. For the same compound, the “% of efficiency, Mean” value (Phakopsora pachyrhizi [2]; dose 40 ppm, mean of experiments) was 96.58% and the “% of efficiency” value (Phakopsora pachyrhizi [2]; dose 40 ppm, single experiments) was 92.3% and 99.5% and 97.8%.
